Assay results: paper PMC4556614 (PLoS ONE, 2015)
Like-named read-outs stand apart in the source and are kept apart here.

What was measured:
[1] = molecular target: T1, OCT2 (Homo sapiens, UniProt O15244); assay: Inhibition of OCT2-mediated [3H]MPP+ uptake in HEK-OCT2 cells; settings: for inhibition at 3 min, 20 µM / inhibition at 3 min, 200 µM: human, pH 7.3, probe [3H]MPP+, 50 µM
Procedure: (§1) For the transport assays HEK cell lines stably transfected with human OCT2 (HEK-OCT2) or the vector only (HEK-VC) were used. The HEK-OCT2 cell line was established and characterized previously. HEK-OCT2 and HEK-VC cells were seeded in poly-D-lysine (Sigma Aldrich, Taufkirchen, Germany) coated 48-well-plates at a density of 1.2 x 10^5 cells/well. […] Uptake was stopped by washing the cells three times with ice-cold uptake buffer. Afterwards, cells were lysed with 5 mM Tris buffer (pH 7.3) containing 0.1% Triton X-100. The intracellular accumulation of radioactivity was determined by liquid scintillation counting (PerkinElmer, Rodgau-Jügesheim, Germany) and protein concentration of each lysate was measured with bicinchonic acid assay (BCA Protein Assay Kit, Thermo Fisher Scientific, Waltham, MA, USA). We performed two to eight experiments each on at least two separate days, i.e., n = 4–16.

[2] = molecular target: T1, OCT2; assay: in vitro; settings: for inhibition at 3 min, 20 µM / inhibition at 3 min, 200 µM: pH 7.3, probe [14C]metformin, 1000 µM, metformin 1000 μM, net uptake HEK-OCT2 minus HEK-VC; for inhibition at 3 min, 20 µM: % Inhibition of OCT2-dependent MF uptake at 20 µM (mean ± SEM), test drug 20 µM; for inhibition at 3 min, 200 µM: % Inhibition of OCT2-dependent MF uptake at 200 µM (mean ± SEM), test drug 200 µM
Procedure: as §1
Experimental half-maximal inhibitory concentrations (IC50 values) were measured as the substrate uptake in the presence of increasing concentrations of test drugs. These experiments were performed as described above (three experiments each on two separate days, i.e., n = 6). IC50 values were calculated with GraphPad Prism 5.0 (GraphPad Software, San Diego, CA, USA). IC50 was estimated by a sigmoidal inhibition model and was fit to the equation V = V 0 / (1 + (I / IC50 ) ^n ) by nonlinear regression. V is the net uptake in the presence of the inhibitor, V 0 is the net uptake in the absence of the inhibitor, I is the concentration of the inhibitor and n is the slope.

[3] = test drug 20 µM, MPP+ 50 μM, 3 min, net uptake HEK-OCT2 minus HEK-VC
[4] = test drug 200 µM, MPP+ 50 μM, 3 min, net uptake HEK-OCT2 minus HEK-VC

T1 sequence (O15244 whole entry): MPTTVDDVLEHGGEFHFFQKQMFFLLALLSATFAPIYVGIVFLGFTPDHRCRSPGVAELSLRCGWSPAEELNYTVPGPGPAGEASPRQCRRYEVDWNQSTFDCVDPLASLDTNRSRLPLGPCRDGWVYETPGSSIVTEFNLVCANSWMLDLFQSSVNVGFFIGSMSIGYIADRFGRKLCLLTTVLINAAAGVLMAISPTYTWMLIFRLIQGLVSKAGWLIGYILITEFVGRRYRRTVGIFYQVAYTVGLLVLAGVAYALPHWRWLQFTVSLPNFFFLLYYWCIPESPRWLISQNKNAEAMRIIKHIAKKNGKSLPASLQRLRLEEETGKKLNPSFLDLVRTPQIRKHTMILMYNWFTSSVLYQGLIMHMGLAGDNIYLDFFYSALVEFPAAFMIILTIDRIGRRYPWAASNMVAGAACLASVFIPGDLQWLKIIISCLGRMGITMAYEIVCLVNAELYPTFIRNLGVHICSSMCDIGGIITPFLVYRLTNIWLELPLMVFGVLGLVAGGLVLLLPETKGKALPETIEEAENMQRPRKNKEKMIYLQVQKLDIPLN

| Structure (SMILES) | % Inhibition of OCT2-dependent MPP+ uptake at 20 µM (mean ± SEM) [1, 3] | % Inhibition of OCT2-dependent MPP+ uptake at 200 µM (mean ± SEM) [1, 4] | % Inhibition of OCT2-dependent MF uptake at 20 µM (mean ± SEM) ([2]; human, pH 7.3) | % Inhibition of OCT2-dependent MF uptake at 200 µM (mean ± SEM) ([2]; human, pH 7.3) | also measured |
| --- | --- | --- | --- | --- | --- |
| Cl.Cl.OCCN1CCN(CCC=C2c3ccccc3Sc3ccc(C(F)(F)F)cc32)CC1 (mixture of isomers) [Flupentixol] | 22.9 ± 7.5% | 107.8 ± 5.0% | – | – | % Inhibition of OCT2-dependent MF uptake at 20 µM (mean ± SEM) [2]: 75.0 ± 7.9; % Inhibition of OCT2-dependent MF uptake at 200 µM (mean ± SEM) [2]: 96.1 ± 2.1 |
| N[C@@H]1C[C@H]1c1ccccc1 (racemic) [Tranylcypromine] | – | – | – | – | % Inhibition of OCT2-dependent MPP+ uptake at 20 µM (mean ± SEM) [1]: 27.8 ± 5.6; % Inhibition of OCT2-dependent MPP+ uptake at 200 µM (mean ± SEM) [1]: 54.7 ± 3.1; % Inhibition of OCT2-dependent MF uptake at 20 µM (mean ± SEM) [2]: 39.0 ± 3.3; % Inhibition of OCT2-dependent MF uptake at 200 µM (mean ± SEM) [2]: 79.1 ± 2.9 |
| CC(=O)Oc1ccccc1C(=O)O [ASA, acetylsalicylic acid] | -10.6 ± 5.7% | -1.5 ± 4.5% | -18.7 ± 11.0% | 1.3 ± 8.9% | – |
| CC(=O)NCCCS(=O)(=O)O [Acamprosate] | -8.1 ± 4.4% | -7.7 ± 5.2% | 2.7 ± 4.8% | 0.9 ± 5.8% | – |
| CC(=O)N[C@@H](CS)C(=O)O [Acetylcysteine] | -35.6 ± 7.7% | -36.0 ± 3.2% | 13.2 ± 6.3% | 11.0 ± 9.4% | – |
| COc1ccc2cccc(CCNC(C)=O)c2c1 [Agomelatine] | – | – | – | – | inhibition at 3 min, 20 µM [1]: -10.3 ± 2.7%; inhibition at 3 min, 200 µM [1]: 39.9 ± 3.5%; inhibition at 3 min, 20 µM ([2]; human): 71.3 ± 2.6%; inhibition at 3 min, 200 µM ([2]; human): 95.5 ± 1.8% |
| Oc1ncnc2[nH]ncc12 [Allopurinol] | – | – | – | – | inhibition at 3 min, 20 µM [1]: 35.6 ± 7.5%; inhibition at 3 min, 200 µM [1]: 52.7 ± 8.8%; inhibition at 3 min, 20 µM ([2]; human): 24.8 ± 6.9%; inhibition at 3 min, 200 µM ([2]; human): 26.8 ± 3.9% |
| CCN1CCCC1CNC(=O)c1cc(S(=O)(=O)CC)c(N)cc1OC (stereo not drawn) [Amisulpride] | – | – | – | – | inhibition at 3 min, 20 µM [1]: 25.5 ± 7%; inhibition at 3 min, 200 µM [1]: 51.3 ± 6.7%; inhibition at 3 min, 20 µM ([2]; human): 52 ± 2.1%; inhibition at 3 min, 200 µM ([2]; human): 91.7 ± 0.7% |
| CCOC(=O)C1=C(COCCN)NC(C)=C(C(=O)OC)C1c1ccccc1Cl (stereo not drawn) [Amlodipine] | -13.8 ± 7.4% | 39.3 ± 6.8% | 21.9 ± 9.0% | 110.0 ± 17.3% | – |
| CC1(C)S[C@@H]2[C@H](NC(=O)[C@H](N)c3ccc(O)cc3)C(=O)N2[C@H]1C(=O)O [Amoxicillin] | -21.0 ± 11.1% | -13.5 ± 14.5% | 3.2 ± 6.6% | 4.5 ± 5.1% | – |
| O=C1CCc2ccc(OCCCCN3CCN(c4cccc(Cl)c4Cl)CC3)cc2N1 [Aripiprazole] | 6.7 ± 3.6% | 16.9 ± 5.2% | 53.4 ± 9.1% | 82.0 ± 6.7% | – |
| O=C(CCCN1CCC(n2c(O)nc3ccccc32)CC1)c1ccc(F)cc1 [Benperidol] | -21.5 ± 2.8% | 1.6 ± 8.3% | 58.7 ± 3.3% | 72.2 ± 2.7% | – |
